Data from patent US20150183802A1, “TRICYCLIC SULFONAMIDE DERIVATIVES” (NOVARTIS AG, priority 2013, published 2015).

Molecular target: T1, hNav1.7 channels (Homo sapiens, UniProt Q15858)
T1 construct: host or cells: HEK293
Test: hNav1.7 channel in vitro patch-clamp assay
Type: cell-based
Conditions: stable HEK293 cell line expressing hNav1.7; whole cell patch-clamp (QPatch HTX and/or conventional), room temperature; voltage protocol not given
Procedure: hNav1.7 Channel In Vitro Patch-Clamp Assay
Cells: Sable HEK293 (human embryonic kidney) cell line expressing hNav1.7 channels was used in the assay. The cell line was obtained from Millipore (Millipore Corporation, MA).
Patch-clamp recordings: The recordings were performed on QPatch HTX (Sophion Bioscience, Denmark) and/or conventional patch-clamp (Axon Multiclamp 700B systems, Molecular Devices, CA) platforms at room temperature, using whole cell patch-clamp techniques. The composition of extracellular solution was (in mM): HEPES 5, NaCl 40, KCl 3, CaCl2 1, MgCl2 1, Choline Chloride 100. Adjust pH to 7.2 with 1N NaOH, osmolarity to 300-310 mOsm with sucrose. The composition of intracellular solution was (in mM): HEPES 10, NaCl 10, Na2ATP 1, MgCl2 2, KF 135, EGTA 10. Adjust pH to 7.2 with 1N NaOH, osmolarity to 290-300 mOsm with sucrose.
For conventional patch-clamp, 35 mm culture dishes containing hNav1.7 cells were placed on the stage of an inverted microscope and continuously perfused with extracellular solution from a perfusion system (Biologic Rapid solution changer, RSC-160, ˜1 ml/min). […] The recordings were controlled by pCLAMP10 software. Test compounds were dissolved in 100% DMSO to make stock solutions for each test concentration, and then diluted into extracellular solution to achieve final concentration for testing. Final DMSO concentration was less than 0.3%. Two voltage protocols were used in hNav1.7 assay: for non-inactivated protocol, the sodium currents were elicited by a 2 ms pulse to −10 mV from a holding potential of −110 mV. For inactivated protocol, the holding potential was set at V1/2. The voltage was firstly stepped to −110 mV for 50 ms, then to −10 mV for 2 ms and then stepped back to holding potential. In both protocols the voltage command was given in every 10 s. Compound effect (% inhibition) was determined by difference in current amplitude before and after the application of test compounds. IC50 values were determined from concentration-response curves that were obtained with Hill fitting.
For QPatch HTX assay, hNav1.7 cells grown to 50%-80% confluence were rinsed with DPBS and dissociated with Tryple (Invitrogen, 12605-010). The dissociated cells were then mixed with extracellular solution. After centrifuge, the cells were resuspended in extracellular solution and used in the QPatch experiment. The whole-cell protocols, voltage protocols and application protocols were established with QPatch Assay Software 3.4 (Sophion Bioscience, Denmark). Only the inactivated protocol was used in the QPatch assay.

T1 sequence (Q15858 whole entry): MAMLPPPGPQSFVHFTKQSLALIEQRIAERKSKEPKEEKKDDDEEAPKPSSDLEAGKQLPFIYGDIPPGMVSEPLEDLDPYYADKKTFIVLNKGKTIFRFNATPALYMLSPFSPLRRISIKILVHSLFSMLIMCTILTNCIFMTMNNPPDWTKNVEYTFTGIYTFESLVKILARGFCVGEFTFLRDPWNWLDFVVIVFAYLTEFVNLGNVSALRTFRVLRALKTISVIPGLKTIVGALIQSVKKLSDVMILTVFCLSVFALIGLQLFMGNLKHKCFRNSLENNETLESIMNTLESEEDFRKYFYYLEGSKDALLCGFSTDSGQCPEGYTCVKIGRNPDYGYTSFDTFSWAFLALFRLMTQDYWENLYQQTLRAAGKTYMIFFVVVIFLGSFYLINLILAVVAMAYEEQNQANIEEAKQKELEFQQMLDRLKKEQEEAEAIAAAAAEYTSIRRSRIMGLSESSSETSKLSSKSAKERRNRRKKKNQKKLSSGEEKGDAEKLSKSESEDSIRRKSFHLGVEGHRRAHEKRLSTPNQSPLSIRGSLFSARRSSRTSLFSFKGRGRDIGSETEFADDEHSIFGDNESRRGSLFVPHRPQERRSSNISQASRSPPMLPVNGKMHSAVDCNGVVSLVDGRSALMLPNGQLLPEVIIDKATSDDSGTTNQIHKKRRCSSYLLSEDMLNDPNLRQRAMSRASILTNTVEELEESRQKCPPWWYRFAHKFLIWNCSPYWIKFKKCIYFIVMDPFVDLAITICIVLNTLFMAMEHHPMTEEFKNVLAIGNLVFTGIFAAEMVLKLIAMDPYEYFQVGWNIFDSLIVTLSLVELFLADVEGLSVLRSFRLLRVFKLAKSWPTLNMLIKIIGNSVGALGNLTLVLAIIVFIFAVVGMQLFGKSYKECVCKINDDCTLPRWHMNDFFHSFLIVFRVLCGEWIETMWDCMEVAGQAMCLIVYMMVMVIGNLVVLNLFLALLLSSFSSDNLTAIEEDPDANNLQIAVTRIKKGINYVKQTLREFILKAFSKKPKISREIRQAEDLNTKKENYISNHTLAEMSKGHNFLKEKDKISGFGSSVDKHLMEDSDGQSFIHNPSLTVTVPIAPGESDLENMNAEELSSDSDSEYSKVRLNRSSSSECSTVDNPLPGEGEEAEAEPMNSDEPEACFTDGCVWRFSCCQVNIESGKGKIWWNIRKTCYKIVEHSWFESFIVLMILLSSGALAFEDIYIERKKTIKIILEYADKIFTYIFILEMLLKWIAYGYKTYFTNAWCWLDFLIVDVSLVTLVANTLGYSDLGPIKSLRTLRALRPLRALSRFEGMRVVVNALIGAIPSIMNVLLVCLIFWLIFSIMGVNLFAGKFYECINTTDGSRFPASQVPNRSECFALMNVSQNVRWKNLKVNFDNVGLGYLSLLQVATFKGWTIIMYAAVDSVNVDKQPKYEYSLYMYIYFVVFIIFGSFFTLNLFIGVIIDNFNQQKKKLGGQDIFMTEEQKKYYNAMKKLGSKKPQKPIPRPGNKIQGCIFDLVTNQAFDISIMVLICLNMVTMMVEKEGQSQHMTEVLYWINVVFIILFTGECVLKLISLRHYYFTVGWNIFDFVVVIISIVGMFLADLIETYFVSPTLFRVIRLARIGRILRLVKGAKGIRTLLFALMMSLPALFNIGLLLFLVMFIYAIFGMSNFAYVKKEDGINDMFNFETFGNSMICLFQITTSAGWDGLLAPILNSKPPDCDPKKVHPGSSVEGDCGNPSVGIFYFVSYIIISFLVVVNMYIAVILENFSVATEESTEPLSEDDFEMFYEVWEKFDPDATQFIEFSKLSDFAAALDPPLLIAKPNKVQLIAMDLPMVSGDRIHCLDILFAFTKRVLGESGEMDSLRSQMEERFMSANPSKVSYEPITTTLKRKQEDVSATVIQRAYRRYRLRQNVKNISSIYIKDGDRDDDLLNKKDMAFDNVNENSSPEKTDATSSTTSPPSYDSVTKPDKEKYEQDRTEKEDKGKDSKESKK

SMILES | IC50 [nM]
CC(C)COc1ncc(N2C(=O)C3(CC3)c3cc4c(NS(C)(=O)=O)noc4cc32)cc1Cl [Example 1, N-(7′-(5-chloro-6-isobutoxypyridin-3-yl)-6′-oxo-6′,7′-dihydrospiro[cyclopropane-1,5′-isoxazolo[4,5-f]indol]-3′-yl)methanesulfonamide] | 150
CC(C)COc1ncc(N2C(=O)C3(CC3)c3cc4c(NS(=O)(=O)C5CC5)noc4cc32)cc1Cl [Example 2, N-(7′-(5-chloro-6-isobutoxypyridin-3-yl)-6′-oxo-6′,7′-dihydrospiro[cyclopropane-1,5′-isoxazolo[4,5-f]indol]-3′-yl)cyclopropanesulfonamide] | 80
CC(C)COc1ncc(N2C(=O)C3(CC3)c3cc4c(NS(=O)(=O)C(C)C)noc4cc32)cc1Cl [Example 3, N-(7′-(5-chloro-6-isobutoxypyridin-3-yl)-6′-oxo-6′,7′-dihydrospiro[cyclopropane-1,5′-isoxazolo[4,5-f]indol]-3′-yl)propane-2-sulfonamide] | 100
CCS(=O)(=O)Nc1noc2cc3c(cc12)C1(CC1)C(=O)N3c1cnc(OCC(C)C)c(Cl)c1 [Example 4, N-(7′-(5-chloro-6-isobutoxypyridin-3-yl)-6′-oxo-6′,7′-dihydrospiro[cyclopropane-1,5′-isoxazolo[4,5-f]indol]-3′-yl)ethanesulfonamide] | 100
CC(C)COc1ncc(N2C(=O)C3(CC3)c3cc4c(NS(=O)(=O)C(F)(F)F)noc4cc32)cc1Cl [Example 5, N-(7′-(5-chloro-6-isobutoxypyridin-3-yl)-6′-oxo-6′,7′-dihydrospiro[cyclopropane-1,5′-isoxazolo[4,5-f]indol]-3′-yl)-1,1,1-trifluoromethanesulfonamide] | 430
CC(C)COc1ncc(N2C(=O)C3(CC3)c3cc4c(NS(=O)(=O)c5ccccc5)noc4cc32)cc1Cl [Example 6, N-(7′-(5-chloro-6-isobutoxypyridin-3-yl)-6′-oxo-6′,7′-dihydrospiro[cyclopropane-1,5′-isoxazolo[4,5-f]indol]-3′-yl)benzenesulfonamide] | 3000
CC(C)COc1ncc(N2C(=O)C3(CC3)c3cc4c(NS(=O)(=O)c5cccs5)noc4cc32)cc1Cl [Example 7, N-(7′-(5-chloro-6-isobutoxypyridin-3-yl)-6′-oxo-6′,7′-dihydrospiro[cyclopropane-1,5′-isoxazolo[4,5-f]indol]-3′-yl)thiophene-2-sulfonamide] | 500
CC(C)COc1ncc(N2C(=O)C3(CC3)c3cc4c(NS(N)(=O)=O)noc4cc32)cc1Cl [Example 8, N-(7′-(5-chloro-6-isobutoxypyridin-3-yl)-6′-oxo-6′,7′-dihydrospiro[cyclopropane-1,5′-isoxazolo[4,5-f]indol]-3′-yl)aminosulfonamide] | 2000
CC(C)COc1ncc(N2C(=O)C3(CC3)c3cc4c(NS(=O)(=O)N(C)C)noc4cc32)cc1Cl [Example 9, N-(7′-(5-chloro-6-isobutoxypyridin-3-yl)-6′-oxo-6′,7′-dihydrospiro[cyclopropane-1,5′-isoxazolo[4,5-f]indol]-3′-yl)dimethylamino-1-sulfonamide] | 1230
CC(C)COc1ncc(N2C(=O)C3(CC3)c3cc4c(NS(=O)(=O)N5CCCC5)noc4cc32)cc1Cl [Example 10, N-(7′-(5-chloro-6-isobutoxypyridin-3-yl)-6′-oxo-6′,7′-dihydrospiro[cyclopropane-1,5′-isoxazolo[4,5-f]indol]-3′-yl)pyrrolidine-1-sulfonamide] | 500
CS(=O)(=O)Nc1noc2cc3c(cc12)C1(CC1)C(=O)N3c1cnc(OCC2CCCCC2)c(Cl)c1 [Example 11, N-(7′-(5-chloro-6-(cyclohexylmethoxy)pyridin-3-yl)-6′-oxo-6′,7′-dihydrospiro[cyclopropane-1,5′-isoxazolo[4,5-f]indol]-3′-yl)methanesulfonamide] | 100
CS(=O)(=O)Nc1noc2cc3c(cc12)C1(CC1)C(=O)N3c1cnc(OCC2CCOCC2)c(Cl)c1 [Example 12, N-(7′-(5-chloro-6-((tetrahydro-2H-pyran-4-yl)methoxy)pyridin-3-yl)-6′-oxo-6′,7′-dihydrospiro[cyclopropane-1,5′-isoxazolo[4,5-f]indol]-3′-yl)methanesulfonamide] | 2000
CS(=O)(=O)Nc1noc2cc3c(cc12)C1(CC1)C(=O)N3c1cnc(OCC2CCC(F)(F)CC2)c(Cl)c1 [Example 13, N-(7′-(5-chloro-6-((4,4-difluorocyclohexyl)methoxy)pyridin-3-yl)-6′-oxo-6′,7′-dihydrospiro[cyclopropane-1,5′-isoxazolo[4,5-f]indol]-3′-yl)methanesulfonamide] | 300
CS(=O)(=O)Nc1noc2cc3c(cc12)C1(CC1)C(=O)N3c1cnc(OCC2CCC(C(F)(F)F)CC2)c(Cl)c1 (centres unmarked) [Example 14, N-(7′-(5-chloro-6-((4-(trifluoromethyl)cyclohexyl)methoxy)pyridin-3-yl)-6′-oxo-6′,7′-dihydrospiro[cyclopropane-1,5′-isoxazolo[4,5-f]indol]-3′-yl)methanesulfonamide] | 200
CC1(COc2ncc(N3C(=O)C4(CC4)c4cc5c(NS(C)(=O)=O)noc5cc43)cc2Cl)CC1 [Example 15, N-(7′-(5-chloro-6-((1-methylcyclopropyl)methoxy)pyridin-3-yl)-6′-oxo-6′,7′-dihydrospiro[cyclopropane-1,5′-isoxazolo[4,5-f]indol]-3′-yl) methanesulfonamide] | 70
CC1(COc2ncc(N3C(=O)C4(CC4)c4cc5c(NS(=O)(=O)C6CC6)noc5cc43)cc2Cl)CC1 [Example 16, N-(7′-(5-chloro-6-((1-methylcyclopropyl)methoxy)pyridin-3-yl)-6′-oxo-6′,7′-dihydrospiro[cyclopropane-1,5′-isoxazolo[4,5-f]indol]-3′-yl)cyclopropanesulfonamide] | 60
O=C1N(c2cnc(OCCCC(F)(F)F)c(Cl)c2)c2cc3onc(NS(=O)(=O)C4CC4)c3cc2C12CC2 [Example 17, N-(7′-(5-chloro-6-(4,4,4-trifluorobutoxyl)pyridin-3-yl)-6′-oxo-6′,7′-dihydrospiro[cyclopropane-1,5′-isoxazolo[4,5-f]indol]-3′-yl)cyclopropanesulfonamide] | 200
C[C@H](Oc1ncc(N2C(=O)C3(CC3)c3cc4c(NS(=O)(=O)C5CC5)noc4cc32)cc1Cl)c1ccc(F)cc1 [Example 18, (S)—N-(7′-(5-chloro-6-(1-(4-fluorophenyl)ethoxy)pyridin-3-yl)-6′-oxo-6′,7′-dihydrospiro[cyclopropane-1,5′-isoxazolo[4,5-f]indol]-3′-yl)cyclopropanesulfonamide] | 100
O=C1N(c2cnc(OC3CC(F)(F)C3)c(Cl)c2)c2cc3onc(NS(=O)(=O)C4CC4)c3cc2C12CC2 [Example 19, N-(7′-(5-chloro-6-(3,3-difluorocyclobutoxyl)pyridin-3-yl)-6′-oxo-6′,7′-dihydrospiro[cyclopropane-1,5′-isoxazolo[4,5-f]indol]-3′-yl)cyclopropanesulfonamide] | 200
O=C1N(c2cnc(OCC(F)(F)F)c(Cl)c2)c2cc3onc(NS(=O)(=O)C4CC4)c3cc2C12CC2 [Example 20, N-(7′-(5-chloro-6-(2,2,2-trifluoroethoxyl)pyridin-3-yl)-6′-oxo-6′,7′-dihydrospiro[cyclopropane-1,5′-isoxazolo[4,5-f]indol]-3′-yl)cyclopropanesulfonamide] | 500
O=C1N(c2cnc(OC3CCC3)c(Cl)c2)c2cc3onc(NS(=O)(=O)C4CC4)c3cc2C12CC2 [Example 21, N-(7′-(5-chloro-6-cyclobutoxypyridin-3-yl)-6′-oxo-6′,7′-dihydrospiro[cyclopropane-1,5′-isoxazolo[4,5-f]indol]-3′-yl)cyclopropanesulfonamide] | 150
CC(C)COc1ncc(N2C(=O)C3(CC3)c3cc4c(NS(=O)(=O)C5CC5)noc4cc32)cc1F [Example 22, N-(7′-(5-fluoro-6-isobutoxypyridin-3-yl)-6′-oxo-6′,7′-dihydrospiro[cyclopropane-1,5′-isoxazolo[4,5-f]indol]-3′-yl)cyclopropanesulfonamide] | 300
CC1CCC(COc2ncc(N3C(=O)C4(CC4)c4cc5c(NS(=O)(=O)C6CC6)noc5cc43)cc2Cl)CC1 (centres unmarked) [Example 23, N-(7′-(5-chloro-6-((4-methylcyclohexyl)methoxy)pyridin-3-yl)-6′-oxo-6′,7′-dihydrospiro[cyclopropane-1,5′-isoxazolo[4,5-f]indol]-3′-yl)cyclopropanesulfonamide] | 200
